Values of other authors, collected in publication PMC8445767 (Bioorganic Chemistry, 2021).
Read-outs that look alike come from different tables or passages of the source.

Columns and labels:
[1] = system: herpes simplex virus type 1; details: read-out: IC50 against herpes simplex virus type 1
[2] = system: herpes simplex virus type 1; details: read-out: IC50 against herpes simplex virus type 1; remark: listed apart in the source

Row | Substance | IC50 [1] [µM] | IC50 [2] [µM]
1 | Aspergilli peptide D [XI] | 9.5 | 
2 | Simplicilliumtide J [XIV] |  | 14
